Some results are limits rather than exact numbers.

One data set concerns the target T1, human TLR8 (Homo sapiens, UniProt Q9NR97).
T1 construct: host or cells: HEK293-Blue-hTLR-8 (HEK293)
T1 sequence (Q9NR97 27-1041): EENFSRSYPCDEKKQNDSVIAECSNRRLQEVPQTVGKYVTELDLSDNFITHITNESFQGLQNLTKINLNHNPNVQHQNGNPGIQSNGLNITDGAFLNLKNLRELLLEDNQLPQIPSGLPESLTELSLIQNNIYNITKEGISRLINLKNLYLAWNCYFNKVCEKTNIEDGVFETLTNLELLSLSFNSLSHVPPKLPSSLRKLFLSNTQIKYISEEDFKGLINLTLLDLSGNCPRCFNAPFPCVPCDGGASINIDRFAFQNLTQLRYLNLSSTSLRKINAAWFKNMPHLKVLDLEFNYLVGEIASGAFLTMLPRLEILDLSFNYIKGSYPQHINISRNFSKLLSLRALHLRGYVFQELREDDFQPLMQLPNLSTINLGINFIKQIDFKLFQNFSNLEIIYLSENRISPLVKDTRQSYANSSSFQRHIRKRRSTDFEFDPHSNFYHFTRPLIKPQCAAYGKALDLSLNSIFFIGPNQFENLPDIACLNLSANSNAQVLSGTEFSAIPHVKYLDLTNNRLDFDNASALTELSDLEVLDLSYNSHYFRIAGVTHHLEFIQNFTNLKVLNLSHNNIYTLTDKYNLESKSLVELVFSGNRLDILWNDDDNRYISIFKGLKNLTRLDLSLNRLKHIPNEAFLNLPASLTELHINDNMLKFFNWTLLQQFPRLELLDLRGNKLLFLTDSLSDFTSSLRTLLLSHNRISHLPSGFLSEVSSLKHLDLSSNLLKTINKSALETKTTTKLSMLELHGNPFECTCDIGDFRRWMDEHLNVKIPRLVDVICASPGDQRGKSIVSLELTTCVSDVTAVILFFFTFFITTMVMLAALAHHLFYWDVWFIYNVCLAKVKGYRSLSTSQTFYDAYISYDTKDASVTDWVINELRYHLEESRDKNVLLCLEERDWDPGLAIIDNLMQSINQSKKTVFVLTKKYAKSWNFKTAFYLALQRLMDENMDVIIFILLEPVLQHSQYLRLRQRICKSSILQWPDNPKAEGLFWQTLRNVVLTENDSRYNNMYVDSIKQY
Nature of the data set: HEK293-Blue-hTLR-8 cells assay. Format: cell-based. As to conditions: HEK293-Blue-hTLR8 cells, R848 stimulation, 20 hrs, SEAP reporter; read-out: HEK/hTLR8 IC50. On the procedure: The following tests were carried out in order to determine the activity of the compounds of formula (I) and (Ia) in HEK293-Blue-hTLR-7/8/9 cells assay.
HEK293-Blue-hTLR-8 cells assay:
A stable HEK293-Blue-hTLR-8 cell line was purchased from InvivoGen (Cat. #: hkb-htlr8, San Diego, Calif., USA). These cells were originally designed for studying the stimulation of human TLR8 by monitoring the activation of NE-κB. A SEAP (secreted embryonic alkaline phosphatase) reporter gene was placed under the control of the IFN-β minimal promoter fused to five NE-κB and AP-1-binding sites. The SEAP was induced by activating NE-κB and AP-1 via stimulating HEK-Blue hTLR8 cells with TLR8 ligands. Therefore the reporter expression was declined by TLR8 antagonist under the stimulation of a ligand, such as R848, for incubation of 20 hrs. The cell culture supernatant SEAP reporter activity was determined using QUANTI-Blue™ kit (Cat. #: rep-qbl, Invivogen, San Diego, Ca, USA) at a wavelength of 640 nm, a detection medium that turns purple or blue in the presence of alkaline phosphatase.
HEK293-Blue-hTLR8 cells were incubated at a density of 250,000-450,000 cells/mL in a volume of 170 μL in a 96-well plate in Dulbecco's Modified Eagle's medium (DMEM) containing 4.5 g/L glucose, 50 U/mL penicillin, […], […], 2 mM L-glutamine, 10% (v/v) heat-inactivated fetal bovine serum with addition of 20 μL test compound in a serial dilution in the presence of final DMSO at 1% and 10 μL of 60 uM R848 in above DMEM, perform incubation under 37° C. in a CO2 incubator for 20 hrs. Then 20 μL of the supernatant from each well was incubated with 180 μL Quanti-blue substrate solution at 37° C. for 2 hrs and the absorbance was read at 620˜655 nm using a spectrophotometer. The signalling pathway that TLR8 activation leads to downstream NE-κB activation has been widely accepted, and therefore similar reporter assay was modified for evaluating TLR8 antagonist.
`C[C@@H]1CN(c2ccc(C#N)c3ncccc23)C[C@H](CN2CC3(C2)CN(c2ccnc(C4CC4)c2)CCO3)O1` [Example 3, 5-[(2S,6R)-2-[[8-(2-cyclopropyl-4-pyridyl)-5-oxa-2,8-diazaspiro[3.5]nonan-2-yl]methyl]-6-methyl-morpholin-4-yl]quinoline-8-carbonitrile]: the IC50 was less than 3 nM.

Regarding `Cc1cc(N2CC[C@@H](NC[C@H]3CN(c4ccc(C#N)c5ncccc45)C[C@@H](C)O3)C2)cc(CO)n1` [Example 28], the IC50 was found to be 32 nM.

Take `Cc1cc(N2CCN(C[C@H]3CN(c4ccc(C#N)c5ncccc45)C[C@@H](C)O3)CC2)cc(N)n1` [Example 40, 5-[(2S,6R)-2-[[4-(2-amino-6-methyl-4-pyridyl)piperazin-1-yl]methyl]-6-methyl-morpholin-4-yl]quinoline-8-carbonitrile]: the IC50 was less than 3 nM.

On to `Cc1cc(N2CC[C@H](F)[C@H](NC[C@H]3CN(c4ccc(C#N)c5ncccc45)C[C@@H](C)O3)C2)cc(CO)n1` [Example 33], for which the IC50 amounted to 7 nM.

As to `Cc1cc(N2CCC23CN(C[C@H]2CN(c4ccc(C#N)c5ncccc45)C[C@@H](C)O2)C3)cc(CO)n1` [Example 12], the IC50 came out at 12 nM.

Take `Cc1cc(C2CCN(C[C@H]3CN(c4ccc(C#N)c5ncccc45)C[C@@H](C)O3)CC2)cc(N)n1` [Example 43, 5-[(2S,6R)-2-[[4-(2-amino-6-methyl-4-pyridyl)-1-piperidyl]methyl]-6-methyl-morpholin-4-yl]quinoline-8-carbonitrile]: the IC50 stood at 18 nM.

As to `Cc1cc(N2CCC23CN(C[C@H]2CN(c4ccc(C#N)c5ncccc45)C[C@@H](C)O2)C3)cc(C)n1` [Example 8], the IC50 worked out at 7 nM.

Consider `C[C@@H]1CN(c2ccc(C#N)c3ncccc23)C[C@H](CN[C@@H]2CCCN(c3ccnc(N)c3)C2)O1` [Example 21, 5-[(2S,6R)-2-[[[(3R)-1-(2-amino-4-pyridyl)-3-piperidyl]amino]methyl]-6-methyl-morpholin-4-yl]quinoline-8-carbonitrile], for which the IC50 amounted to 15 nM.

As to `Cc1cc(N2CCC(NC[C@H]3CN(c4ccc(C#N)c5ncccc45)C[C@@H](C)O3)CC2)cc(CO)n1` [Example 23], the IC50 is 41 nM.

Consider `Cc1cc(N2CCOC3(CN(C[C@H]4CN(c5ccc(C#N)c6ncccc56)C[C@@H](C)O4)C3)C2)cc(C)n1` [Example 14], for which the IC50 was less than 3 nM.

For `Cc1cc(N2CCC[C@@H](NC[C@H]3CN(c4ccc(C#N)c5ncccc45)C[C@@H](C)O3)C2)cc(CO)n1` [Example 24], the IC50 stood at 10 nM.

Take `C[C@@H]1CN(c2ccc(C#N)c3ncccc23)C[C@H](CN2CCN(c3cc(N)nc(CO)c3)CC2)O1` [Example 45, 5-[(2S,6R)-2-[[4-[2-amino-6-(hydroxymethyl)-4-pyridyl]piperazin-1-yl]methyl]-6-methyl-morpholin-4-yl]quinoline-8-carbonitrile]: the IC50 turned out to be 14 nM.

With `Cc1cc(N2CCC[C@H](NC[C@H]3CN(c4ccc(C#N)c5ncccc45)C[C@@H](C)O3)C2)cc(CO)n1` [Example 25], the IC50 worked out at 14 nM.

For `C[C@@H]1CN(c2ccc(C#N)c3ncccc23)C[C@H](CN2CC3(C2)CN(c2ccnc(CO)c2)CCO3)O1` [Example 51], the IC50 came to 3 nM.

In the case of `Cc1cc(N2CC[C@H](NC[C@H]3CN(c4ccc(C#N)c5ncccc45)C[C@@H](C)O3)C2)cc(CO)n1` [Example 29], the IC50 amounted to 25 nM.

As for `Cc1cc(N2CCOC3CN(CC4CN(c5ccc(C#N)c6ncccc56)CC(C)O4)CC32)cc(C)n1` (single isomer, unassigned) [Example 17A], the IC50 was less than 3 nM.

For `Cc1cc(N2CCC[C@H](N(C)C[C@H]3CN(c4ccc(C#N)c5ncccc45)C[C@@H](C)O3)C2)cc(CO)n1` [Example 38], the IC50 turned out to be 4 nM.

For the compound `C[C@@H]1CN(c2ccc(C#N)c3ncccc23)C[C@H](CN2CCN(c3ccnc(N)c3)CC2)O1` [Example 19, 5-[(2S,6R)-2-[[4-(2-amino-4-pyridyl)piperazin-1-yl]methyl]-6-methyl-morpholin-4-yl]quinoline-8-carbonitrile], the IC50 was determined as 3 nM.

On to `CNc1cc(N2CCN(C[C@H]3CN(c4ccc(C#N)c5ncccc45)C[C@@H](C)O3)CC2)cc(C)n1` [Example 42, 5-[(2R,6S)-2-methyl-6-[[4-[2-methyl-6-(methylamino)-4-pyridyl]piperazin-1-yl]methyl]morpholin-4-yl]quinoline-8-carbonitrile], for which the IC50 is less than 3 nM.

For the compound `Cc1cc(N2CC(NC[C@H]3CN(c4ccc(C#N)c5ncccc45)C[C@@H](C)O3)CC(F)(F)C2)cc(CO)n1` (stereo partly shown) [Example 36], the IC50 amounted to 12 nM.

On to `C[C@@H]1CN(c2ccc(C#N)c3ncccc23)C[C@H](CN[C@H]2CCCN(c3ccnc(N)c3)C2)O1` [Example 22], for which the IC50 stood at 38 nM.

Turning to `Cc1cc(N2CCC[C@@H](N(C)C[C@H]3CN(c4ccc(C#N)c5ncccc45)C[C@@H](C)O3)C2)cc(CO)n1` [Example 35], the IC50 turned out to be 9 nM.

With `Cc1cc(N2CCC23CN(C[C@H]2CN(c4ccc(C#N)c5ncccc45)C[C@@H](C)O2)C3)ccn1` [Example 15], the IC50 was 6 nM.

Take `Cc1cc(N2CCOC3(CN(C[C@H]4CN(c5ccc(C#N)c6ncccc56)C[C@@H](C)O4)C3)C2)ccn1` [Example 16]: the IC50 is less than 3 nM.

In the case of `Cc1cc(N2C[C@H]3CN(C[C@H]4CN(c5ccc(C#N)c6ncccc56)C[C@@H](C)O4)C[C@H]3C2)cc(CO)n1` [Example 10], the IC50 was found to be 22 nM.

Consider `Cc1cc(N2CCN(C[C@H]3CN(c4ccc(C#N)c5ncccc45)C[C@@H](C)O3)[C@H](C)C2)cc(CO)n1` [Example 4B], for which the IC50 worked out at 5 nM.

Consider `Cc1cc(N2CCOC3CN(CC4CN(c5ccc(C#N)c6ncccc56)CC(C)O4)CC32)cc(C)n1` (single isomer, unassigned) [Example 17B], for which the IC50 stood at 3 nM.

As to `Cc1cc(N(C)C2CN(C[C@H]3CN(c4ccc(C#N)c5ncccc45)C[C@@H](C)O3)C2)cc(C)n1` [Example 11], the IC50 was 11 nM.

Regarding `Cc1cc(N2CC[C@@H](F)[C@H](NC[C@H]3CN(c4ccc(C#N)c5ncccc45)C[C@@H](C)O3)C2)cc(CO)n1` [Example 34], the IC50 came out at 4 nM.

Test system in a further data set: not listed separately
Briefly: Human microsome stability assay. Format: in vitro ADME. As to conditions: 1 μM test compound, 0.5 mg/mL liver microsomal protein, 37° C. On the procedure: Human microsome stability assay
The human microsomal stability assay is used for early assessment of metabolic stability of a test compound in human liver microsomes.
Human liver microsomes (Cat.NO.: 452117, Corning, USA;Cat.NO.:H2610, Xenotech, USA) were preincubated with test compound for 10 minutes at 37° C. in 100 mM potassium phosphate buffer, pH 7.4. The reactions were initiated by adding NADPH regenerating system. The final incubation mixtures contained 1 μM test compound, 0.5 mg/mL liver microsomal protein, 1 mM MgCl2, 1 mM NADP, 1 unit/mL isocitric dehydrogenase and 6 mM isocitric acid in 100 mM potassium phosphate buffer, pH 7.4. After incubation times of 0, 3, 6, 9, 15 and 30 minutes at 37° C., 300 μL of cold acetonitrile (including internal standard) was added to 100 μL incubation mixture to terminate the reaction. Following precipitation and centrifugation, the amount of compound remaining in the samples were determined by LC-MS/MS. Controls of no NADPH regenerating system at zero and 30 minutes were also prepared and analyzed.
For orientation: Liver microsomes are a subcellular fraction often used to study metabolism.
`Cc1cc(N2CC[C@@H](NC[C@H]3CN(c4ccc(C#N)c5ncccc45)C[C@@H](C)O3)C2)cc(CO)n1` [Example 28]: the “Clearance of Human microsome” value is given as 6.25 mL/min/kg.

`Cc1cc(N2CCN(C[C@H]3CN(c4ccc(C#N)c5ncccc45)C[C@@H](C)O3)CC2)cc(N)n1` [Example 40, 5-[(2S,6R)-2-[[4-(2-amino-6-methyl-4-pyridyl)piperazin-1-yl]methyl]-6-methyl-morpholin-4-yl]quinoline-8-carbonitrile]: the “Clearance of Human microsome” value came out at 6.15 mL/min/kg.

(Values after patent publication US20210269451A1, “PYRIDINYL HETEROCYCLYL COMPOUNDS FOR THE TREATMENT OF AUTOIMMUNE DISEASE” (Hoffmann-La Roche Inc., priority 2018, published 2021).)
